One test concerns potassium channel. As to the kind of experiment: potassium channel activation (method not described). The class given is biochemical.
Another test can be described thus: craving for a cigarette. The settings on record: cigarette smoking. Type of test: in vivo. The text has this:
The interference with the effects of withdrawal symptoms from addictive substances of the subject compounds is also consistent with potassium channel activation. […] As one gets a craving for a cigarette, there is a perception of muscular tension. The effects of potassium channel activators are to lower the blood pressure, relax the muscles and make breathing easier, all of which counteracts the feeling of craving one experiences upon withdrawal from an addictive substance.

Test [1] addresses T1, large 200-220 pS channel (large Ca++-dependent K+ channel) (Rattus norvegicus, UniProt Q62976).
T1 construct: single-channel recording
Kind of test: lipid bilayer technique, rat brain membranes fused with a bilayer on a patch-clamp pipette. Type of test: biochemical. How it is done: Isolated avena pyrone was studied for its action against ionic channels in cell membranes using the lipid bilayer technique. Membranes from rat brain were fused with a lipid bilayer formed across the opening of a patch-clamp pipette. Electrical activity was monitored using an Axon Instruments Axopatch amplifier using 100 mM symmetrical KCl solutions. In the presence of elevated levels of calcium, at least three types of potassium channel can be determined: a small 25-50 pS channel, a 90-120 pS channel, and a large 200-220 pS channel. In the absence of calcium in the bathing solutions, openings of the large 200 pS channel are rarely seen.
FIGS. 1 and 2 show the exposure of the channels to potassium in the presence of avena pyrone. In the two tracings in FIG. 1, the membrane potential was held at -25 mV. Under these conditions, the mid-sized K^+ channel is very active but the large channel is rarely open during the approximately 1.5 seconds shown. […] The effect is most pronounced under low calcium conditions.
(The patch-clamp technique gives a direct electrical read-out from membranes.)

“Also recorded” adds a separate entry of the source.

T1 sequence (Q62976 whole entry): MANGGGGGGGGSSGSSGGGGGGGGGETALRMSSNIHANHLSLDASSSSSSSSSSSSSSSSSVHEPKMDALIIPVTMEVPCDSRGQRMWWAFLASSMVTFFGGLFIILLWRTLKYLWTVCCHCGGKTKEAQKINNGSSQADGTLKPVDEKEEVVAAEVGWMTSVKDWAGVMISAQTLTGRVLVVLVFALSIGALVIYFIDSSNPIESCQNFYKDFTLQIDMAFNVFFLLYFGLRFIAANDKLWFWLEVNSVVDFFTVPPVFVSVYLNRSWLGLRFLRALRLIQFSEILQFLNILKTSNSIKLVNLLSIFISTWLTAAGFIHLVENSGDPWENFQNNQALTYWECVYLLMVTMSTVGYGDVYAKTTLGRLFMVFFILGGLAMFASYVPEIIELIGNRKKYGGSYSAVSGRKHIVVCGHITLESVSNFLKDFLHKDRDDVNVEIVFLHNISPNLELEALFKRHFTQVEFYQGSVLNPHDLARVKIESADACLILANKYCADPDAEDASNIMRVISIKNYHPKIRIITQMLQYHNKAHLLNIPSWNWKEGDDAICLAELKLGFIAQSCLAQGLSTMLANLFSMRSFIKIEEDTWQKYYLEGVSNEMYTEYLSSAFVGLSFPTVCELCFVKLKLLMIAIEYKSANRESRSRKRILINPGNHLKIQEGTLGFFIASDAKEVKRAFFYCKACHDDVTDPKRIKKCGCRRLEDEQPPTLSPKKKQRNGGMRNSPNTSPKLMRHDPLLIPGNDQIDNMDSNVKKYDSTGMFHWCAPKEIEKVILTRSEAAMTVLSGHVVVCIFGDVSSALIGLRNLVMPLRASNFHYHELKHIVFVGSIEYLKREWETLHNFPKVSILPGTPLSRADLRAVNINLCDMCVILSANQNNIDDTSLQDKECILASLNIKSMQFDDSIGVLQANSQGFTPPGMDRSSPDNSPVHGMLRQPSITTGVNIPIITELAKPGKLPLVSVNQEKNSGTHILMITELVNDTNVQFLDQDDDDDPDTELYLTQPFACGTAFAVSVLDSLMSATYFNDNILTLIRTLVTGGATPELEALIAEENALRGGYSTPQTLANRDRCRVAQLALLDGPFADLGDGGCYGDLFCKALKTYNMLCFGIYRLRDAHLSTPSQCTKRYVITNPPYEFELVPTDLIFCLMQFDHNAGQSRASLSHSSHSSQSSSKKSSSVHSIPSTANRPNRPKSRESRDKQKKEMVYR

In the case of `COC1=CC(=O)O[C@@H](/C=C/c2ccccc2)C1` [kawain], in the test on potassium channel, the potassium channel activation entry is given as “potassium channel activating substance”.
Consider `CC1CCCC(=O)O1` (stereo not drawn) [avena pyrone, 2H-6-methyltetrahydropyran-2-one], for which the “craving for a cigarette” value in “craving for a cigarette” is on record as “reduce the craving for a cigarette”. Further, in test [1] (absence of calcium / low calcium, 100 mM symmetrical KCl, membrane potential -25 mV), the “activation of the large K+ channel” value is recorded as “activation of the large K^+ channel is seen; also recorded: the large channel was activated”. For the same compound, the “open times of the large channel” value in test [1] (avena pyrone added to the bath, -25 mV) is given as “very long open times; also recorded: increased from a few milliseconds to times approaching seconds”. Further, the “open probability of the large channel” value in test [1] (avena pyrone added to the bathing solution) is reported as “increased open probability; also recorded: substantially increasing the open probability”. In test [1] (conditions of greater calcium concentration), the “activation of the large channel” value is on record as “still capable of activation of the channel but to a lesser degree”.
